This assay deals with CEM cells HIV-1 protection, formazan growth assay. The assay can be described thus: NCI AIDS Antiviral Assay. Particulars: for IC50: measured here: growth of uninfected CEM cells. In short, it runs like this:
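Human CEM cells, uninfected and HIV-1-infected, exposed to five drug concentrations; growth measured by soluble formazan assay and scored as percent protection from infection, with protecting compounds retested.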

The term EC50 denotes the midpoint of the concentration-response curve. The term IC50 denotes the concentration at which inhibition is half-maximal. Higher therefore signals a need for much substance.

“And” between values parts separate entries of the source, which are not always exact repeats. Equal entries are not always repeated. The source made the active and inactive calls.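 The calls were made as follows: active = compounds giving half or more protection of infected cells from virus-caused growth loss, again on retest; inactive = the rest.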 Where a SMILES comes first, the peptide text is derived from it. [ ]: non-standard residue; d: D form. The star is where a group is joined. Ac5c = NC1(C(=O)O)CCCC1; Cbz = O=C(OCc1ccccc1)*; Boc = CC(C)(C)OC(=O)*; tBu = CC(C)(C)*

Consider `CNC(SC)=C1C(=O)OC(C)(C)OC1=O`, for which the EC50 is greater than 1070 µM and the IC50 worked out at 457 µM.
Regarding `Cc1cn(CC2COC(CO)O2)c(=O)[nH]c1=O` (stereo not given), the EC50 was greater than 1020 µM and the IC50 is greater than 1020 µM.
`C1CCCCC2(CCCCCCCCC3(CCC1)OCCO3)OCCO2`: the EC50 was greater than 200 µM and the IC50 was greater than 200 µM.
On to `O=c1c2ccccc2nc(N/N=C/c2ccc(Cl)cc2)n1-c1ccccc1`, for which the EC50 is greater than 200 µM and the half-inhibitory concentration (IC50) is greater than 200 µM.
Turning to `CCCCCCCCCCCC(C(=O)O)C(=O)O`, the EC50 was greater than 138 µM and the IC50 is greater than 138 µM.
Take `CN1CCC(SC2Cc3cc(Cl)ccc3Sc3ccccc32)CC1` (stereo not given): the EC50 was greater than 69.2 µM and the IC50 stood at 12 µM.
The like results for `c1ccc(C2=NC3OC2c2ccccc23)cc1` (stereo not given) were, in that order, greater than 200 µM and greater than 200 µM.
The like results for `CC(=O)OCC1OC(n2cc(C)c(-n3cncn3)nc2=O)CC1N=[N+]=[N-]` (stereo not given) were, in that order, greater than 200 µM and 11.5 µM.
`Cc1c(C(=O)O)[nH]c(=O)[nH]c1=O`: the EC50 is greater than 200 µM and the IC50 was greater than 200 µM.
With `CCCCCCCCCC1CC(=O)Oc2cccc(O)c21` (stereo not given), the EC50 is greater than 25.1 µM and the IC50 was greater than 25.1 µM.
In the case of `CC1(C)C2CCC(CN)(C2)C1O` (stereo not given), the EC50 is greater than 200 µM and the IC50 is greater than 200 µM.
Take `c1ccc(C2=C(c3ccccc3)CSSC2)cc1`: the EC50 is greater than 69.2 µM and the IC50 was greater than 69.2 µM.
Consider `N#Cc1c(N)n(-c2nc3ccccc3s2)c(=O)c2cc([N+](=O)[O-])ccc12`, for which the EC50 was greater than 100 µM and the IC50 was determined as 12 µM.
For `O=c1oc2ccccc2c(O)c1C(c1ccc(-c2ccccc2)cc1)c1c(O)c2ccccc2oc1=O`, in that order: greater than 200 µM and 35.5 µM.
The like results for `Cc1noc2nccnc12` were, in that order, greater than 186 µM and greater than 186 µM.
As for `COc1ccc(C2C(Cl)C(=O)N2n2cnc3ccccc3c2=O)cc1OC` (stereo not given), the EC50 is greater than 339 µM and the IC50 stood at 46.8 µM.
For `O=C1CN(CCN2CCCCC2)CC(=O)N2Cc3ccccc3CN12`, in that order: greater than 200 µM and greater than 200 µM.
The like results for `COC(=O)C1ON(c2ccccc2)C2c3ccccc3-c3ccccc3C12` (stereo not given) were, in that order, greater than 5.62 µM and greater than 5.62 µM.
For `CCOC(OC1=C(C#N)CCC1)C(CC)[Se]c1ccccc1` (stereo not given), in that order: greater than 70.8 µM and 52.5 µM.
Take `Cc1c(C(=O)C/C(=N/NC(=O)c2ccccc2)C(=O)Nc2ccc(Cl)cc2)[n+](=O)c2ccccc2n1[O-]`: the EC50 was greater than 34.7 µM and the IC50 was 20.4 µM.
The like results for `O=C(c1nc2cc([N+](=O)[O-])ccc2[nH]c1=O)C(O)c1ccco1` (stereo not given) were, in that order, greater than 200 µM and 61.7 µM.
For `C[Si](C)(C)/C=C\CCNC=O`, in that order: greater than 1450 µM and greater than 1450 µM.
For `N#Cc1ccc(N(O)C(=O)c2ccccc2)cc1`, the EC50 was greater than 200 µM and the IC50 stood at 46.8 µM.
On to `CC1=C2CC[C@]2(C)[C@]23OCC(C)(CC2C1=O)C3O` (stereo not given in full), for which the outcome was inactive.
As to `CC(=O)OCc1cncn1S(=O)(=O)c1ccc(C)cc1`, the EC50 is greater than 200 µM and the IC50 is 22.9 µM.
For the compound `CN(C)C(C(N)=O)c1ccc(Cl)cc1` (stereo not given), the result was inactive.
Consider `N=S(=O)(c1ccccc1)c1ccccc1[N+](=O)[O-]` (stereo not given), for which the EC50 is 53.7 µM and the IC50 is 91.2 µM.
Take `CCCCCCCCCCCCCC(=O)OCC1OC(n2cc(C)c(=O)[nH]c2=O)CC1F` (stereo not given): the EC50 is 0.0437 µM and the IC50 was 120 µM.
The like results for `Cc1nsnc1CCO` were, in that order, greater than 1740 µM and greater than 1740 µM.
As to `CC(=O)NC(C(=O)O)C(C)(C)SN=O` (stereo not given), the EC50 was greater than 1120 µM and the IC50 was determined as 240 µM.
Regarding `COc1ccc(C2CC(=O)c3c(O)cc(O)cc3O2)cc1O` (stereo not given), the EC50 was greater than 832 µM and the IC50 came to 74.1 µM.
Turning to `COc1ccc(NC(=S)N=Nc2c(O)[nH]c3ccccc23)cc1`, the EC50 was greater than 200 µM.
As for `c1ccc([P+](Cc2ccccc2C[P+](c2ccccc2)(c2ccccc2)c2ccccc2)(c2ccccc2)c2ccccc2)cc1`, the EC50 was greater than 200 µM; the IC50 was 129 µM and 107 µM.
In the case of `O=C(O)c1nc2cc(C(F)(F)F)ccc2nc1Nc1ccc(Cl)c(Cl)c1`, the EC50 is greater than 200 µM and the IC50 was 10 µM.
For `CCOC(=O)C1C(=O)CN2CCc3c([nH]c4ccccc34)C12C(=O)OCC` (stereo not given), in that order: greater than 257 µM and 162 µM.
The like results for `COC(=O)C1(NC(=O)C(Cc2ccccc2)NC(=O)C(NC(=O)C(CCCCNC(=O)OC(C)(C)C)NC(=O)C(Cc2c[nH]c3ccccc23)NC(=O)C(Cc2ccccc2)NC(=O)OCc2ccccc2)C(C)OC(C)(C)C)CCCC1` (stereo not given) (Cbz-FWK(Boc)T(tBu)F[Ac5c]-OMe; configuration not given here) were, in that order, greater than 200 µM and 115 µM.
With `CN(C)c1ccc(S(=O)Nc2ccccc2)cc1` (stereo not given), the EC50 is greater than 200 µM and the IC50 is 85.1 µM.
For `O=C(N/N=C/C=C/c1ccccc1)c1ccncc1`, in that order: greater than 200 µM and 33.1 µM.
As for `Nc1[nH]c(=O)ncc1F`, the EC50 was greater than 200 µM and the IC50 is greater than 200 µM.
With `COC(=O)N/N=C(\C)CC(=O)Nc1cccc([N+](=O)[O-])c1`, the EC50 was greater than 447 µM and the IC50 is greater than 447 µM.
On to `CC1=C(C)SC(=C2Sc3c(n(C)c(=O)n(C)c3=O)S2)S1`, for which the EC50 is 182 µM and the IC50 is greater than 200 µM.
For `COC(=O)C1Cc2c([nH]c3ccccc23)-c2[nH]c3ccccc3c2CC(NC(C)=O)C(=O)NCC(=O)NCC(=O)N1` (stereo not given), in that order: greater than 200 µM and greater than 200 µM.
For the compound `CCOc1ccc(N=Cc2ccnc3ccccc23)cc1`, the result was inactive.
With `Cc1nc(-c2cccnc2)sc1C(=O)/C=C/c1ccc(Cl)cc1Cl`, the EC50 is greater than 19.1 µM and the IC50 was greater than 19.1 µM.
As to `COC(=O)CC12C=CC3(OO1)C(C)(C)CCCC3(C)O2` (stereo not given), the EC50 was greater than 200 µM and the IC50 was 174 µM.
`Cc1ncc([N+](=O)[O-])n1CCNS(=O)(=O)CCCn1ncnc1[N+](=O)[O-]`: the EC50 was greater than 200 µM and the IC50 is greater than 200 µM.
For the compound `COc1nc2c(nc(N)n2C2OCC(O)C(O)C2O)c(=O)n1C` (stereo not given), the outcome was inactive.
With `CCc1c(Cc2cc(C)cc(C)c2)n(COCCO[Si](C)(C)C(C)(C)C)c(=O)[nH]c1=O`, the EC50 is 0.646 µM and the IC50 came out at 11.5 µM.
For the compound `O=C(O)c1cc(CC2Cc3cc4c(cc3C2=O)CCC4)cc2c1CCC2` (stereo not given), the EC50 is greater than 200 µM and the IC50 is 53.7 µM.
For the compound `COC(=O)c1cc(C)ccc1CC(Cc1ccccc1C)C(=O)OC` (stereo not given), the EC50 is greater than 200 µM and the IC50 is 37.2 µM.
For `O=C1c2cc(Cl)ccc2-n2c(noc2=O)C2CSCN12` (stereo not given), in that order: greater than 200 µM and greater than 200 µM.
With `Fc1ccc(/C=C2\COCC3=C2NC(=S)NC3c2ccc(F)cc2)cc1` (stereo not given), the result was inactive.
As to `O=C1/C(=C/c2ccccc2)CCC/C1=C\c1ccccc1`, the EC50 was greater than 200 µM and the IC50 stood at 8.13 µM.
On to `COC(=O)/N=[N+](\[O-])C(c1ccc(OC)cc1)C1CCCCC1` (stereo not given), for which the EC50 was greater than 200 µM and the IC50 came to 5.62 µM.
For `Cc1ccc(S(=O)c2sccc2C=O)cc1` (stereo not given), in that order: greater than 200 µM and 9.77 µM.
Take `Cc1ccc(S(=O)(=O)n2cc(/C=C/C#N)c(/C=C/C#N)c2)cc1`: the result was inactive.
`COc1cc(N=CN(C)C)c2ncccc2c1`: the result was inactive.
On to `Cc1ccc(N=Nc2c(C)c(C#N)c(=S)n(C3OC(CO)C(O)C(O)C3O)c2C)cc1` (stereo not given), for which the EC50 is greater than 200 µM and the IC50 was 19.1 µM.
The like results for `COc1ccc(CCNC(=S)/N=C/C2=C(O)CC(C)(C)CC2=O)cc1OC` were, in that order, greater than 200 µM and greater than 200 µM.
On to `CN1N=C(c2ccncc2)OC1c1ccc(Cl)c(Cl)c1` (stereo not given), for which the EC50 was greater than 200 µM and the IC50 is 85.1 µM.
The like results for `COc1ccccc1NC(=S)/N=C/c1c(O)cc(C)oc1=O` were, in that order, greater than 200 µM and greater than 200 µM.
The like results for `CC1=NN(C(=O)Cc2ccccc2)C(=O)/C1=C\c1ccc(O)cc1` were, in that order, greater than 16.2 µM and greater than 16.2 µM.
`C=CCCCCCCCC(O)C1C[C@H](O)C(CCCCC)O1` (stereo not given in full): the outcome was inactive.
For `OC1CCCCCCCCCCC1SCCCCl` (stereo not given), the EC50 is greater than 200 µM and the IC50 is greater than 200 µM.
As for `CN1C2C=CC(=O)C1C(C#N)C2` (stereo not given), the EC50 was greater than 200 µM; the IC50 was 34.7 µM and 115 µM.
For `CCCCOC(=O)/C=C(\Br)C(=O)OCCCC`, the result was inactive.
Turning to `COc1ccccc1N1C(=O)CC(=O)N(C(=O)CCCCCCCCC(=O)N2C(=O)CC(=O)N(c3ccccc3OC)C2=S)C1=S`, the EC50 was greater than 200 µM and the IC50 amounted to 95.5 µM.
On to `Nc1cc(=O)[nH]c(=S)n1-c1ccc(Cl)cc1`, for which the EC50 is greater than 200 µM and the IC50 was greater than 200 µM.
With `Clc1c2ccccc2[se][n+]1-c1ccccc1`, the EC50 was greater than 21.9 µM and the IC50 turned out to be 11.2 µM.
The like results for `CCC(C)C(NC(=O)C(N)CCCN=C(N)N)C(=O)NC(CCC(N)=O)C(=O)NC(CCCN=C(N)N)C(=O)NCC(=O)N1CCCC1C(=O)NCC(=O)NC(CCCN=C(N)N)C(=O)NC(C)C(=O)NC(Cc1ccccc1)C(=O)NC(C(=O)NC(C(=O)NC(C(=O)NCC(=O)NC(CCCCN)C(N)=O)C(C)CC)C(C)OC1OC(CO)C(O)C(O)C1NC(C)=O)C(C)C` (stereo not given) were, in that order, greater than 50.1 µM and greater than 50.1 µM.
For `CC1=C(C(=O)Nc2ccccc2)C(c2ccc(C(C)C)cc2)C(C(=O)Nc2ccccc2)=C(C)N1`, the outcome was inactive.
Take `CC(NC(=O)C(C)C(=O)Nc1ccc(C(F)(F)F)cc1)C(N)=O` (stereo not given): the EC50 was greater than 200 µM and the IC50 was greater than 200 µM.
Take `Nc1ncc(/C=C/CNC(=O)c2ccc[nH]2)[nH]1`: the EC50 is greater than 1070 µM and the IC50 stood at 155 µM.

(Values after PubChem BioAssay AID179 (DTP/NCI, 2004).)
